Series [1] has as its system anesthetized normal rats. Description: In vivo measurement of salivation. The following applies: anesthetized normal rats, dose-dependent between about 0.1 mg/kg and 1 mg/kg. Also noted: species or system rat. On the procedure: Suitable doses of test compounds or drug substances were administered using standard techniques to Long Evans Hooded rats weighing 225 to 350 grams, or CD-1 mice weighing 30 to 50 grams, which had been anesthetized using 2-3.5%% of isoflurane in oxygen. The animals were placed slightly head-down on an inclined, heated ramp. Rectal temperature was monitored using a thermocouple and the temperature of the heating pad was adjusted manually to maintain normal body temperature. Saliva was collected from the mouth by absorption onto pre-weighed slips of filter paper. The filter paper was changed periodically and the amount of saliva was measured by weighing the filter paper slips

Series [2] relates to hippocampal inositol phosphate signaling pathway. Description: In vivo tissue inositol phosphate signaling pathway activation, hippocampus. Set-up: species or system rat. The following applies: normal rats, dose-dependent in the dose range 0.03 mg/kg to at least 3 mg/kg. As for the experimental part: Experimental compounds or drug substances were administered using standard techniques to Long Evans Hooded rats weighing 225 to 350 grams, and which had been pretreated with a subcutaneous injection of lithium chloride at a suitable dose between 3 and 10 mmoles per kg. At suitable times the animals were briefly anesthetized using 5% isoflurane and euthanized by decapitation. The brains and submaxillary salivary glands were rapidly dissected out, and the hippocampuses were dissected from the brains. The dissected tissues were homogenized in a suitable volume of ice-cold phosphate-buffered saline containing 10 mM lithium chloride, pH7.4, using a tissue homogenizer, and used immediately or frozen in aliquots at −80degC. for future use. The concentration of inositol-1-phosphate was determined in the homogenates using the IPOne TR-FRET assay (CisBio cat no 621PAPEB), following the manufacturer's instruction

The test system of series [3] is A-beta 1-40 and A-beta 1-42. The experiment in a line: A-beta in hippocampal microdialysate. It is filed as in vivo, Tg-2576 transgenic mice. The following applies: Tg-2576 mice. An excerpt:
These mice have high concentrations of A-beta in their brain tissue, thought to be the cause of neuron death in Alzheimer's disease, and accumulate amyloid plaques, recapitulating one of the hallmark pathological features of Alzheimer's disease.

Series [4] relates to pooled male Sprague-Dawley rat liver microsomes. Description: Metabolism by rat liver microsomes. The following applies: 6 hours incubation. It counts as in vitro ADME. As for the experimental part: Compounds were incubated with pooled male Sprague-Dawley rat liver microsomes (BD Biosciences, #452501) and an NADP-regenerating system in a phosphate buffer (pH 7.4) for a total of 6 hours. Aliquots were removed every 2 hours, and 1% formic acid was added to halt the reaction. Samples were centrifuged, filtered through 0.2 micron spinfilter and the amount of each compound in the supernatants was quantitated using LC/MS/MS.
A general note: Liver microsomes are vesicles of endoplasmic reticulum, rich in cytochrome P450 enzymes.

The source of these data is patent US20120046273A1, “COMPOUNDS AND COMPOSITIONS FOR COGNITION-ENHANCEMENT, METHODS OF MAKING, AND METHODS OF TREATING” (MITHRIDION, INC., priority 2009, published 2012).

Structures are written as SMILES.

In the case of `Cc1noc(C2CCCNC2)n1` (racemic) [Compound 82, 3-Methyl-5-(piperidin-3-yl)-1,2,4-oxadiazole], the salivation side effect entry in series [1] is listed as “causes salivation”. Moreover, the “hippocampal IP response” value in series [2] is on record as “causes an increase in the hippocampal IP response”. In series [3], the “reduction of the concentration of A-beta 1-40” value was “approximately 40%” and the “reduction of the concentration of A-beta 1-42” value is reported as “approximately 40%”. The “extent of metabolism in rat liver microsomes” value in series [4] is “far more stable than compounds 126 and 127”.
